{"source": "patent US7195885B2", "about": "“Hepatitis C virus assays” (Bristol-Myers Squibb Company, priority 2002, dated 2007)", "key": {"[1]": {"tested_on": "HCV replicon cell line (NS3 protein)", "test": "Western analysis of NS3 protein in the HCV replicon cell line", "assay_type": "cell-based, Hepatitis C virus", "protocol": "Experiments were done in duplicate. Western analysis was performed according to the instructions for Amershams Chemiluminescence Immunology Kit (NEL105 Renaissance) using a Molecular Dynamics Storm 860 phosphoimager and associated software. The primary and secondary antibody dilutions were at 1 to 5,000. Antisera was generated by immunizing rabbits with purified NS3 protease made from an E. Coli expression vector encoding the first 181 amino acids of HCV 1a NS3 with subsequent boosts.\nBleeds were tested weekly and boosts continued until a positive signal on a control western was seen. Secondary antibody was a BioRad (#170–6515) Goat anti-Rabbit IgG HRP Conjugate. The protein samples for western analysis were from the same wells used for the FRET assay and were prepared by the addition of an equal volume of 2×SDS-PAGE buffer to the FRET assay mixture, heating and loading on a 10% gel for SDS-PAGE. Interferon alpha (IFN-α) was obtained from Sigma (#I-4276) and stored as recommended."}, "[2]": {"tested_on": "HCV replicon cell line (Huh-7)", "test": "Alamar Blue cytotoxicity assay step", "assay_type": "cell-based"}, "[3]": {"tested_on": "HCV replicon cell line (HCV RNA)", "test": "Quantitative RT-PCR of HCV RNA in the HCV replicon cell line"}, "[4]": {"tested_on": "HCV replicon cell line (NS3 protease activity)", "test": "HCV replicon FRET assay (NS3 protease activity as indirect measure of HCV RNA replication)", "quoted_text": "The HCV replicon cell line was isolated from colonies as described by Lohman et al. al. (Lohman, supra) and used for all experiments.\nThese cell lines were maintained at 37° C., 5% CO2, 100% relative humidity in DMEM (Life Technologies #11965-084) with 10% heat inactivated calf serum (Sigma #F-2442), 100 U/ml of penicillin/streptomycin (Life Technologies #15140-122), Geneticin at 1 mg/ml (Life Technologies #10131-027). One of the cell lines which had approximately 3,000 copies of HCV replicon RNA/cell was used for development of the assay.\nTo perform the HCV FRET screening assay, 96-well cell culture plates were used.\nThe assay reagent was made as follows: 5× cell Luciferase cell culture lysis reagent from Promega (#E153A) diluted to 1× with dH2O, NaCl added to 150 mM final, the FRET peptide diluted to 20 uM final from a 2 mM stock. Cells were trypsinized, placed into each well of a 96-well plate and allowed to attach overnight. The next day, the test compounds were added to columns 1 through 10; column 11 was media only, and column 12 contained a titration of interferon as a control (1000 units for A12, B12, 100 units for C12, D12, 10 units for E12, F12 and 1 unit for G12, H12). In addition, replicon cells in A12, B12 can be replaced, if desired, with naïve Huh-7 cells as a negative background control. The plates were then placed back in the incubator.\nSubsequent to addition of the test compounds described above (FRET Assay Preparation), at various times the plate was removed and Alamar Blue solution (Trek Diagnostics, #00–100) was added per well as a measure of cellular toxicity.\nCompound analysis was determined by quantification of the relative HCV replicon inhibition and the relative cytotoxicity values."}, "[5]": {"settings": "FIG. 6A, titration 0.1 to 1,000 units per milliliter, 96 hours of incubation"}, "[6]": {"settings": "interferon titration in HCV replicon cell line"}}}
{"substance": "interferon-α [IFN-α]", "values": [{"measurement": "EC50, Western", "setting": "[1]; [5]", "result": "1.9 units of IFN-α per milliliter"}, {"measurement": "EC50, western assay", "setting": "[1]; [6]", "result": 1.9, "unit": "units"}, {"measurement": "cytotoxicity (Alamar Blue)", "setting": "[2]; highest concentration of IFN-α, 1000 units, FIG. 7B wells A12 and B12", "result": "Approximately 18%"}, {"measurement": "cytotoxicity (Alamar Blue), in words", "setting": "[2]; lower concentrations of IFN-α (below 1000 units)", "result": "no apparent Alamar Blue staining change"}, {"measurement": "EC50, RT-PCR", "setting": "[3]; [5]", "result": "5.3 units of IFN-α per milliliter"}, {"measurement": "EC50, qRT-PCR assay", "setting": "[3]; [6]", "result": 5.3, "unit": "units"}, {"measurement": "EC50, FRET", "setting": "[4]; [5]", "result": "2.9 units of IFN-α per milliliter"}, {"measurement": "EC50, FRET assay", "setting": "[4]; [6]", "result": 2.9, "unit": "units"}, {"measurement": "EC50 in IFN-α control samples of the compound plate, in words", "setting": "[4]; random compound plate control titration 1000, 100, 10, 1 units, FIG. 7A", "result": "close to or slightly lower than the lowest concentration of IFN-α used"}]}
